In US11993640B2, “Treating inflammatory lung disease” (United States Government as represented by the Department …, priority 2019, dated 2024):
Non-standard residues stand in square brackets, D forms with d. Residues, ends and D or L forms follow the SMILES beside them. *: point of attachment. Phenylacetyl(2,3,4,5,6-F5) = O=C(Cc1c(F)c(F)c(F)c(F)c1F)*; Phe(F5) = N[C@@H](Cc1c(F)c(F)c(F)c(F)c1F)C(=O)O; Phe(4-Cl) = N[C@@H](Cc1ccc(Cl)cc1)C(=O)O; hArg = N=C(N)NCCCC[C@H](N)C(=O)O; 12Ado = NCCCCCCCCCCCC(=O)O; Nle = CCCC[C@H](N)C(=O)O; Orn = NCCC[C@H](N)C(=O)O; Abu = CC[C@H](N)C(=O)O; PhAc = O=C(Cc1ccccc1)*

What was measured:
NCI-N87 cells = assay: In vitro cell viability (CellTiter 96), stomach cancer N87; format: cell-based, human; conditions: 5 μM, 72 h
Experimental: (§1) The inhibitory effects of the various synthesized GHRH antagonists were tested in cell proliferation assays in various human cancer cell lines including stomach cancer (KATOIII, N87), colon cancer (HT-29), urothelial cancer (J82, RT4), pancreatic cancer (PANC-1, CFPAC-1), prostatic cancer (PC3), breast cancer (MX-1, HCC1806), ovarian cancer (SK-OV-3, OVCAR-3) and lung cancer (HCC827, H460).
(§2) Cell culture. Human cancer cell lines including pancreatic (PANC-1 and CFPAC-1), lung (HCC827 and H460), stomach (NCI-N87 and KATOIII), urothelial (J82, RT4), prostatic (PC3), breast (MX-1 and HCC 1806), colorectal (HT-29), and ovarian (SK-OV-3 and OVCAR-3) were obtained from the American Type Culture Collection (ATCC) and cultured at 37° C. in a humidified 95% air/5% CO2 atmosphere in the medium recommended by ATCC.
(§3) In vitro cell viability. Cell viability was analyzed as follows: cancer cells including pancreatic (PANC-1 and CFPAC-1), lung (HCC827 and H460), stomach (NCI-N87 and KATOIII), urothelial (J82, RT4), prostatic (PC3) and breast (MX-1 and HCC 1806), colorectal (HT-29) and ovarian (SK-OV-3 and OVCAR-3) were grown on 96 well plates to ˜60% confluence, the cells were starved for 24 h in culture medium containing 0.5% FBS. Cells were then treated with GHRH antagonists MIA602 AVR compounds at concentrations of 1, 2.5 or 5 μM, or vehicle (0.1% DMSO) in quintuplicates for 72 hours. The medium was replaced every 48 hours. Cell viability was measured using CellTiter 96 aqueous one solution kit (Promega). Inhibitory effects of tested AVR compounds in comparison to that of MIA602 are presented as inhibitory potency.
(§4) Inhibitory effects of selected AVR compounds in comparison to that of MIA602 are presented as inhibitory potency (e.g., percentage of inhibition). […] The cell lines tested including lung cancer HCC827 (FIG. 2A), pancreatic cancer CFPAC-1 (FIG. 2B), stomach cancer N87 (FIG. 2C), colon cancer HT-29 (FIG. 2D), breast cancers MX-1 and HCC1806 (FIGS. 2E, F). Based on the results of cell proliferation assay after cancer cells were treated with antagonist at concentration of 5 μM for 72H, the relative inhibitory potency of AVR antagonists in comparison to MIA-602 is summarized in Table 3 A and B. Over 60 AVR compounds were tested in 12 cancer cell lines.
(§5) Based on the results of cell proliferation assay after cancer cells were treated with antagonist at concentration of 5 µM for 72H, * at concentration of 2 µM for 72 H.

KATOIII cells = assay: In vitro cell viability, stomach cancer KATOIII; format: cell-based, human; conditions: 5 μM, 72 h; relative to MIA602 = 1; Table 3A
Experimental: as §1, §2, §3, §4

HCC827 cells = assay: In vitro cell viability, lung cancer HCC827; format: cell-based, human; conditions: 5 μM, 72 h; relative to MIA602 = 1; Table 3A
Experimental: as §1, §2, §3, §4, §5

CFPAC-1 cells = assay: In vitro cell viability, pancreatic cancer CFPAC-1; format: cell-based, human; conditions: 5 μM, 72 h; relative to MIA602 = 1; Table 3A
Experimental: as §1, §2, §3, §4, §5

PANC-1 cells = assay: In vitro cell viability, pancreatic cancer PANC-1; format: cell-based, human; conditions: 5 μM, 72 h; relative to MIA602 = 1; Table 3A
Experimental: as §1, §2, §3, §4

J82 cells = assay: In vitro cell viability, urothelial cancer J82; format: cell-based, human; conditions: 5 μM, 72 h; relative to MIA602 = 1; Table 3A
Experimental: as §1, §2, §3, §4

NCI-N87 xenograft = assay: Xenograft tumor growth in nude mice, stomach cancer N87; format: in vivo; conditions: Panel D, 10 weeks, 2 μg/day s.c.
Experimental: The peptides' activity was compared with GHRH antagonist MIA-602. All statistical analyzses were performed from comparing GHRA antagonists to non-treated tumor (control).
Peptides and chemicals. GHRH antagonists MIA-602 and AVR-GHRH antagonists (see Table 2 above) were synthesized by solid phase methods and purified by HPLC. The peptides were dissolved in DMSO and further diluted in 10% 1, 2-propanediol. The final concentration of peptides was 50 µg/ml in 10% 1, 2-propanediol containing 0.1% of DMSO.
as §2, with “(NCI-N87), prostate” for “(NCI-N87 and KATOIII), urothelial (J82, RT4), prostatic”, “brest” for “breast”, “HCC-1806),” for “HCC 1806),”
Xenograft models of human cancers in nude mice. Female athymic (NCr nu/nu) nude mice, 5-to 6-weeks-old, obtained from the Envigo labs (Tampa, FL), were housed in laminar airflow cabinets under pathogen-free conditions with a 12-h light/12-h dark schedule, and were fed autoclaved standard chow and water. To generate mice with xenografted tumors, tumor xenografts were initiated by subcutaneous (s.c.) injection of […] human cancer cells into female nude mice. After about 4 weeks the resulting tumors were dissected and collected after removing necrosis tissues. The tumors were then cut into particles with size of ˜3 mm3 and transplanted s.c. by trocar needle into experimental animals. When tumors grew to the size of 50-60 mm3 (by volume), […] of 5 μg of GHRH antagonists MIA-602 or AVR-compounds (2-10 μg as indicated), or vehicle solutions (0.1% DMSO in 10% 1, 2-propanediol) respectively. Tumor sizes were measured weekly.
Statistical analysis. One-way ANOVA followed by Bonferroni comparison were performed. Data are expressed as Mean±SEM. To determine statistical significance between animal groups, two-tailed Student's t-test was conducted. Differences were considered significant when p<0.05.
Results. […] FIG. 1A-N represents in vivo inhibition of tumor growth during the treatment with GHRH antagonist MIA-602 and selected AVR antagonists in nude mice xenografted with various human tumors including pancreatic cancer PANC-1 (FIG. 1A) and CFPAC-1 (FIG. 1I); lung cancer HCC827 (FIGS. 1B, C) and H460 (FIG. 1H); stomach cancer N87 (FIGS. 1D-F); colon cancer HT-29 (FIG. 1G); breast cancer MX-1 and HCC-1806 (FIGS. 1J, K); ovarian cancer SK-OV-3 and OVACAR-3 (FIGS. 1L, M) and prostate cancer PC3 (FIG. 1N). See also Table 5.

| Compound | Relative inhibitory potency, Stomach N87 (NCI-N87 cells; relative to MIA602 = 1, Table 3A) | Relative inhibitory potency, Stomach KATOIII (KATOIII cells) | Relative inhibitory potency, Lung HCC827 (HCC827 cells) | Relative inhibitory potency, Pancreatic CFPAC-1 (CFPAC-1 cells) | Relative inhibitory potency, Pancreatic Panc-1 (PANC-1 cells) | Relative inhibitory potency, Urothelial J82 (J82 cells) | In vitro relative inhibitory potency in comparison to MIA-602, NCI-N87 (NCI-N87 cells; Table 3B) | Tumor Growth % (NCI-N87 xenograft) |
| --- | --- | --- | --- | --- | --- | --- | --- | --- |
| CCCC[C@H](NC(=O)[C@@H](NC(=O)[C@H](CC(=O)O)NC(=O)[C@H](CCC(N)=O)NC(=O)[C@H](CC(C)C)NC(=O)[C@H](CC(C)C)NC(=O)[C@H](CCCN)NC(=O)[C@H](Cc1c[nH]cn1)NC(=O)[C@H](C)NC(=O)[C@H](CO)NC(=O)[C@H](CC(C)C)NC(=O)[C@H](CCC(N)=O)NC(=O)[C@H](CC)NC(=O)[C@H](CC(C)C)NC(=O)[C@@H](NC(=O)[C@H](CCCCN)NC(=O)[C@H](CCCNC(=N)N)NC(=O)[C@H](Cc1c(F)c(F)c(F)c(F)c1F)NC(=O)[C@H](CCCNC(=N)N)NC(=O)[C@H](C)NC(=O)[C@@H](NC(=O)[C@H](Cc1ccc(Cl)cc1)NC(=O)[C@@H](NC(=O)[C@H](C)NC(=O)[C@H](CC(=O)O)NC(=O)[C@@H](CCCNC(=N)N)NC(=O)[C@H](Cc1ccc(O)cc1)NC(=O)CCCCCCCCCCCNC(=O)Cc1ccccc1)[C@@H](C)CC)[C@@H](C)O)C(C)C)[C@@H](C)CC)C(=O)N[C@H](CCCNC(=N)N)C(=O)N[C@@H](CCCCNC(=N)N)C(N)=O [AVR-116, PhAC-Ada-Tyr-DArg-Asp-Ala-Ile-Cpa-Thr-Ala-Arg-5FPhe-Arg-Lys-Val-Leu-Abu-Gln-Leu-Ser-Ala-His-Orn-Leu-Leu-Gln-Asp-Ile-Nle-DArg-Har-NH2] ({PhAc-12Ado}-Y[dR]DAI[Phe(4-Cl)]TAR[Phe(F5)]RKVL[Abu]QLSAH[Orn]LLQDI[Nle][dR][hArg]-NH2) | 2.484 | 1.202 | 2.470 | 1.445 | 1.208 | 3.034 | – | – |
| CCCC[C@H](NC(=O)[C@@H](NC(=O)[C@H](CC(=O)O)NC(=O)[C@H](CCC(N)=O)NC(=O)[C@H](CC(C)C)NC(=O)[C@H](CC(C)C)NC(=O)[C@H](CCCCN)NC(=O)[C@H](CCCNC(=N)N)NC(=O)[C@H](C)NC(=O)[C@H](CO)NC(=O)[C@H](CC(C)C)NC(=O)[C@H](CCC(N)=O)NC(=O)[C@H](CC)NC(=O)[C@H](CC(C)C)NC(=O)[C@@H](NC(=O)[C@H](CCCCN)NC(=O)[C@H](CCCNC(=N)N)NC(=O)[C@H](Cc1ccc(OC)cc1)NC(=O)[C@H](CCCCNC(=N)N)NC(=O)[C@H](CC(N)=O)NC(=O)[C@@H](NC(=O)[C@H](Cc1ccc(Cl)cc1)NC(=O)[C@@H](NC(=O)[C@H](C)NC(=O)[C@H](CC(=O)O)NC(=O)[C@@H](CCCNC(=N)N)NC(=O)[C@H](Cc1ccc(O)cc1)NC(=O)CCCCCCCCCCCNC(=O)Cc1c(F)c(F)c(F)c(F)c1F)[C@@H](C)CC)[C@@H](C)O)C(C)C)[C@@H](C)CC)C(=O)N[C@H](CCCNC(=N)N)C(=O)N[C@@H](CCCCNC(=N)N)C(=O)NCCCCCCCCCCCC(N)=O [AVR-333, 5FPhAC-Ada-Tyr-DArg-Asp-Ala-Ile-Cpa-Thr-Asn-Har-Tyr(Me)-Arg-Lys-Val-Leu-Abu-Gln-Leu-Ser-Ala-Arg-Lys-Leu-Leu-Gln-Asp-Ile-Nle-DArg-Har-Ada-NH2] ({Phenylacetyl(2,3,4,5,6-F5)-12Ado}-Y[dR]DAI[Phe(4-Cl)]TN[hArg]Y(Me)RKVL[Abu]QLSARKLLQDI[Nle][dR][hArg][12Ado]-NH2) | – | – | – | – | – | – | 1.4 | 454.00% |
